From patent publication US7192924B2, “Corticotropin releasing factor 2 receptor agonists” (priority 2002, dated 2007)
Peptide text beside a SMILES is read from it.

Columns and labels:
CRF2R = molecular target: T1, CRF2R (Homo sapiens, UniProt Q13324); assay: CRF2R agonist activity (EC50, Emax), called comparative CRF binding; type: cell-based; settings: read-out: CRF2R EC50
T1 sequence (Q13324 1-411): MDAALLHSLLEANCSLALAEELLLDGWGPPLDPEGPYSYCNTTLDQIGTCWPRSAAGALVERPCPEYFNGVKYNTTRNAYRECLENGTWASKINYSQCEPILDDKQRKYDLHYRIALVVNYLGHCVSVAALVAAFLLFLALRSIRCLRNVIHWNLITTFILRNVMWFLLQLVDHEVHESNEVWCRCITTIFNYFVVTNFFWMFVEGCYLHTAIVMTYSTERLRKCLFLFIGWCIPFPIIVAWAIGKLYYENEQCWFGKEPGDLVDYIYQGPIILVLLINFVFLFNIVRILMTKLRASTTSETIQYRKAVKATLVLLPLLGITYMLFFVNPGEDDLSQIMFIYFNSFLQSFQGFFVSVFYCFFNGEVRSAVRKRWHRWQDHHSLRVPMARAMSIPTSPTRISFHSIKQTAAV
Outline: (§1)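 Peptides were applied to cells carrying a single CRFR subtype, then cAMP levels or CRE-driven reporter expression were quantified against vehicle-treated cells.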

CRF1R = molecular target: T2, CRF1R (Homo sapiens, UniProt P34998); assay: CRF1R agonist activity (EC50, Emax), called comparative CRF binding; type: cell-based; settings: read-out: CRF1R EC50
T2 sequence (P34998 24-415): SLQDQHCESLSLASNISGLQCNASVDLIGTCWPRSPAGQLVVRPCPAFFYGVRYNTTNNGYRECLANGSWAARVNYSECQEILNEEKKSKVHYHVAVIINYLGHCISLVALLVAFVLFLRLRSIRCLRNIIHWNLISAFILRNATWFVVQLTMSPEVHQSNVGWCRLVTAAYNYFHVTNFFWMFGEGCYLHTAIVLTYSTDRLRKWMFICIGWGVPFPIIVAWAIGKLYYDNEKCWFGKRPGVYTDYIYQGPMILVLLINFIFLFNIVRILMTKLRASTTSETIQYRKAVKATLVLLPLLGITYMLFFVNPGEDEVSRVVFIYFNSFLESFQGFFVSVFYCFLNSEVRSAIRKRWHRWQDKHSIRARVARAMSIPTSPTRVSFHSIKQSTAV
Outline: as §1

| Structure (SMILES) | EC50 (CRF2R) [nM] | EC50 (CRF1R) [nM] |
| --- | --- | --- |
| CC[C@H](C)[C@H](NC(=O)[C@H](C)NC(=O)[C@H](CC(N)=O)NC(=O)[C@H](CCC(N)=O)NC(=O)[C@H](CCC(=O)O)NC(=O)[C@H](C)NC(=O)[C@H](CCCNC(=N)N)NC(=O)[C@H](CCC(=O)O)NC(=O)[C@H](CCCNC(=N)N)NC(=O)[C@H](CCC(N)=O)NC(=O)[C@H](CO)NC(=O)[C@H](CCC(N)=O)NC(=O)[C@@H](NC(=O)[C@H](CCCNC(=N)N)NC(=O)[C@H](C)NC(=O)[C@H](CC(C)C)NC(=O)[C@H](CCC(=O)O)NC(=O)[C@H](CC(C)C)NC(=O)[C@H](CC(C)C)NC(=O)[C@@H](NC(=O)[C@H](CCCNC(=N)N)NC(=O)[C@H](CC(C)C)NC(=O)[C@H](CC(C)C)NC(=O)[C@H](Cc1c[nH]cn1)NC(=O)[C@H](CC(C)C)NC(=O)[C@@H]1CCCN1C(=O)[C@H](CC(C)C)NC(=O)[C@H](CC(=O)O)NC(=O)[C@@H](NC(=O)[C@H](CO)NC(=O)[C@H](CC(C)C)NC(=O)[C@H](CO)NC(=O)[C@@H]1CCCN1C(=O)[C@H](CC(N)=O)NC(=O)[C@@H](N)CC(=O)O)[C@@H](C)CC)[C@@H](C)O)[C@@H](C)O)C(=O)N[C@H](C(=O)N[C@@H](Cc1ccccc1)C(=O)N[C@@H](C)C(=O)N[C@@H](CO)C(=O)N[C@H](C(N)=O)C(C)C)[C@@H](C)CC [compound 179] (H-DNPSLSIDLPLHLLRTLLELARTQSQRERAEQNAIIFASV-NH2; N-terminus assumed) | 10.2 | 477 |
| CC[C@H](C)[C@H](NC(=O)[C@H](C)NC(=O)[C@H](CC(N)=O)NC(=O)[C@H](CCC(N)=O)NC(=O)[C@H](CCC(=O)O)NC(=O)[C@H](C)NC(=O)[C@H](CCCNC(=N)N)NC(=O)[C@H](CCC(=O)O)NC(=O)[C@H](CCCNC(=N)N)NC(=O)[C@H](CCC(N)=O)NC(=O)[C@H](CO)NC(=O)[C@H](CCC(N)=O)NC(=O)[C@@H](NC(=O)[C@H](CCCNC(=N)N)NC(=O)[C@H](C)NC(=O)[C@H](CC(C)C)NC(=O)[C@H](CCC(=O)O)NC(=O)[C@H](CC(C)C)NC(=O)[C@H](CC(C)C)NC(=O)[C@@H](NC(=O)[C@H](CCCNC(=N)N)NC(=O)[C@H](CC(C)C)NC(=O)[C@H](CC(C)C)NC(=O)[C@@H](NC(=O)[C@H](Cc1ccccc1)NC(=O)[C@@H]1CCCN1C(=O)[C@H](CC(C)C)NC(=O)[C@H](CC(=O)O)NC(=O)[C@@H](NC(=O)[C@H](CO)NC(=O)[C@H](CC(C)C)NC(=O)[C@H](CO)NC(=O)[C@@H]1CCCN1C(=O)[C@H](CC(N)=O)NC(=O)[C@@H](N)CC(=O)O)[C@@H](C)CC)[C@@H](C)CC)[C@@H](C)O)[C@@H](C)O)C(=O)N[C@H](C(=O)N[C@@H](Cc1ccccc1)C(=O)N[C@@H](C)C(=O)N[C@@H](CO)C(=O)N[C@H](C(N)=O)C(C)C)[C@@H](C)CC [compound 181] (H-DNPSLSIDLPFILLRTLLELARTQSQRERAEQNAIIFASV-NH2; N-terminus assumed) | 5.22 | 154 |
| CC[C@H](C)[C@H](NC(=O)[C@H](C)NC(=O)[C@H](CC(N)=O)NC(=O)[C@H](CCC(N)=O)NC(=O)[C@H](CCC(=O)O)NC(=O)[C@H](C)NC(=O)[C@H](CCCNC(=N)N)NC(=O)[C@H](CCC(=O)O)NC(=O)[C@H](CCCNC(=N)N)NC(=O)[C@H](CCC(N)=O)NC(=O)[C@H](CO)NC(=O)[C@H](CCC(N)=O)NC(=O)[C@@H](NC(=O)[C@H](CCCNC(=N)N)NC(=O)[C@H](C)NC(=O)[C@H](CC(C)C)NC(=O)[C@H](CCC(=O)O)NC(=O)[C@H](CC(C)C)NC(=O)[C@H](CC(C)C)NC(=O)[C@@H](NC(=O)[C@H](CCCNC(=N)N)NC(=O)[C@H](CC(C)C)NC(=O)[C@H](CC(C)C)NC(=O)[C@H](Cc1ccc(O)cc1)NC(=O)[C@H](Cc1ccccc1)NC(=O)[C@@H]1CCCN1C(=O)[C@H](CC(C)C)NC(=O)[C@H](CC(=O)O)NC(=O)[C@@H](NC(=O)[C@H](CO)NC(=O)[C@H](CC(C)C)NC(=O)[C@H](CO)NC(=O)[C@@H]1CCCN1C(=O)[C@H](CC(N)=O)NC(=O)[C@@H](N)CC(=O)O)[C@@H](C)CC)[C@@H](C)O)[C@@H](C)O)C(=O)N[C@H](C(=O)N[C@@H](Cc1ccccc1)C(=O)N[C@@H](C)C(=O)N[C@@H](CO)C(=O)N[C@H](C(N)=O)C(C)C)[C@@H](C)CC [compound 183] (H-DNPSLSIDLPFYLLRTLLELARTQSQRERAEQNAIIFASV-NH2; N-terminus assumed) | 7.93 | 415 |
| CC[C@H](C)[C@H](N)C(=O)N[C@H](C(=O)N[C@@H](CC(C)C)C(=O)N[C@@H](CO)C(=O)N[C@@H](CC(C)C)C(=O)N[C@@H](CC(=O)O)C(=O)N[C@H](C(=O)N[C@H](C(=O)N[C@H](C(=O)NCC(=O)N[C@@H](CC(C)C)C(=O)N[C@@H](CC(C)C)C(=O)N[C@@H](CCC(N)=O)C(=O)N[C@H](C(=O)N[C@@H](CC(C)C)C(=O)N[C@@H](CC(C)C)C(=O)N[C@@H](CCC(=O)O)C(=O)N[C@@H](CCC(N)=O)C(=O)N[C@@H](C)C(=O)N[C@@H](CCCNC(=N)N)C(=O)N[C@@H](C)C(=O)N[C@@H](CCCNC(=N)N)C(=O)N[C@@H](C)C(=O)N[C@@H](C)C(=O)N[C@@H](CCCNC(=N)N)C(=O)N[C@@H](CCC(=O)O)C(=O)N[C@@H](CCC(N)=O)C(=O)N[C@@H](C)C(=O)N[C@H](C(=O)N[C@H](C(=O)N[C@@H](CC(N)=O)C(=O)N[C@@H](C)C(=O)N[C@@H](CCCNC(=N)N)C(=O)N[C@H](C(=O)N[C@@H](CC(C)C)C(=O)N[C@@H](C)C(=O)N[C@@H](CCCNC(=N)N)C(=O)N[C@H](C(N)=O)C(C)C)[C@@H](C)CC)[C@@H](C)O)[C@@H](C)O)[C@@H](C)CC)[C@@H](C)CC)C(C)C)C(C)C)C(C)C [compound 214] (H-IVLSLDVVIGLLQILLEQARARAAREQATTNARILARV-NH2; N-terminus assumed) | 74.3 | ≥ 100 |
| CC[C@H](C)[C@H](NC(=O)[C@H](C)NC(=O)[C@H](CC(N)=O)NC(=O)[C@H](CCC(N)=O)NC(=O)[C@H](CCC(=O)O)NC(=O)[C@H](C)NC(=O)[C@H](CCCNC(=N)N)NC(=O)[C@H](CCC(=O)O)NC(=O)[C@H](CCCNC(=N)N)NC(=O)[C@H](CCC(N)=O)NC(=O)[C@H](CO)NC(=O)[C@H](CCC(N)=O)NC(=O)[C@@H](NC(=O)[C@H](CCCNC(=N)N)NC(=O)[C@H](C)NC(=O)[C@H](CC(C)C)NC(=O)[C@H](CCC(=O)O)NC(=O)[C@H](CC(C)C)NC(=O)[C@H](CC(C)C)NC(=O)[C@@H](NC(=O)[C@H](CCCNC(=N)N)NC(=O)[C@H](CC(C)C)NC(=O)[C@H](CC(C)C)NC(=O)[C@H](Cc1ccc(O)cc1)NC(=O)[C@H](Cc1ccc(O)cc1)NC(=O)[C@@H]1CCCN1C(=O)[C@H](CC(C)C)NC(=O)[C@H](CC(=O)O)NC(=O)[C@@H](NC(=O)[C@H](CO)NC(=O)[C@H](CC(C)C)NC(=O)[C@H](CO)NC(=O)[C@@H]1CCCN1C(=O)[C@H](CC(N)=O)NC(=O)[C@@H](N)CC(=O)O)[C@@H](C)CC)[C@@H](C)O)[C@@H](C)O)C(=O)N[C@H](C(=O)N[C@@H](Cc1ccccc1)C(=O)N[C@@H](C)C(=O)N[C@@H](CO)C(=O)N[C@H](C(N)=O)C(C)C)[C@@H](C)CC [compound 263] (H-DNPSLSIDLPYYLLRTLLELARTQSQRERAEQNAIIFASV-NH2; N-terminus assumed) | 36.2 | 802 |
| CC[C@H](C)[C@H](N)C(=O)N[C@H](C(=O)N[C@@H](CC(C)C)C(=O)N[C@@H](CO)C(=O)N[C@@H](CC(C)C)C(=O)N[C@@H](CC(=O)O)C(=O)N[C@H](C(=O)N1CCC[C@H]1C(=O)N[C@H](C(=O)NCC(=O)N[C@@H](CC(C)C)C(=O)N[C@@H](CC(C)C)C(=O)N[C@@H](CCC(N)=O)C(=O)N[C@@H](CCCCN)C(=O)N[C@H](C(=O)N[C@H](C(=O)N[C@@H](CCC(=O)O)C(=O)N[C@H](C(=O)N[C@@H](CCC(=O)O)C(=O)N[C@@H](CCCCN)C(=O)N[C@@H](CCC(N)=O)C(=O)N[C@@H](CCC(=O)O)C(=O)N[C@@H](CCCCN)C(=O)N[C@@H](CCC(=O)O)C(=O)N[C@@H](CCCCN)C(=O)N[C@@H](CCC(N)=O)C(=O)N[C@@H](CCC(N)=O)C(=O)N[C@@H](C)C(=O)N[C@H](C(=O)N[C@H](C(=O)N[C@@H](CC(N)=O)C(=O)N[C@@H](C)C(=O)N[C@@H](CCCNC(=N)N)C(=O)N[C@H](C(=O)N[C@@H](CC(C)C)C(=O)N[C@@H](C)C(=O)N[C@@H](CCCNC(=N)N)C(=O)N[C@H](C(N)=O)C(C)C)[C@@H](C)CC)[C@@H](C)O)[C@@H](C)O)[C@@H](C)CC)[C@@H](C)CC)C(C)C)[C@@H](C)CC)C(C)C)C(C)C [compound 300] (H-IVLSLDVPIGLLQKVIEIEKQEKEKQQATTNARILARV-NH2; N-terminus assumed) | 17.1 | ≥ 1000 |
